Measurements reported in ChEMBL document CHEMBL3868605, “Flavans with potential anti-inflammatory activities from Zephyranthes candida” (Bioorg Med Chem Lett, 2016).

Key:
[1] = Antiinflammatory activity in mouse RAW264.7 cells assessed as inhibition of LPS-induced nitric oxide production after 24 hrs in presence of LPS by Griess assay; type: functional, cell-based; conditions: RAW264.7, 24 h
[2] = Cytotoxicity against mouse RAW264.7 cells assessed as cell survival rate at 200 uM after 24 hrs in absence of LPS by MTT assay; type: toxicity; conditions: read-out: Survival
[3] = Cytotoxicity against mouse RAW264.7 cells assessed as cell survival rate at 200 uM after 24 hrs in presence of LPS by MTT assay; type: toxicity; conditions: read-out: Survival

Compound	IC50 [1]	viability at 24 h, 200 µM [2]	viability at 24 h, 200 µM [3]
COc1ccc2c(c1)O[C@H](c1ccccc1)[C@H](O)C2	17.3 µM	119%	104%
COc1ccc([C@@H]2CCc3ccc(O)cc3O2)cc1O[C@@H]1O[C@H](CO)[C@@H](O)[C@H](O)[C@H]1O	16.1 µM	123%	114%
COc1ccc([C@@H]2CCc3ccc(O[C@@H]4O[C@H](CO)[C@@H](O)[C@H](O)[C@H]4O)cc3O2)cc1O	21.5 µM	104%	116%
C[C@@H]1C[C@H]2[C@@H]3CCC4=CC(=O)C=C[C@]4(C)[C@@]3(F)[C@@H](O)C[C@]2(C)[C@@]1(O)C(=O)CO [DEXAMETHASONE]	0.63 µM	91%	100%
